Here are results for 29 molecules from PubChem BioAssay AID294 (DTP/NCI, 2004).

Molecules are shown by their SMILES. Values joined by “and” are separate entries in the source; they are usually repeats but may differ in a detail not shown here. Equal entries are not always repeated.

The test system of this assay is MX-1 breast xenograft, nude mice, tumor weight change. Description: NCI In Vivo Anticancer Drug Screen. Data for tumor model Human Mammary Carcinoma MX-1 Xenograft (subcutaneous) in NU/NU Swiss (nude) mice. As to conditions: endpoint: optimum tumor weight change, higher = larger tumour. The protocol:
The antitumor activity of compounds was measured in mice bearing transplantable tumors. Survival or tumor size were measured and the results are expressed as the measurement made in the treated group (T) divided by the measurement made in the vehicle treated control group (C). The tumor model used in this assay is Human Mammary Carcinoma MX-1 Xenograft (subcutaneous) in NU/NU Swiss (nude) mice
Background: Xenograft models place foreign cells or tissue in a host animal.

[1] abbreviates: dose: 50.0 mg/kg/injection, schedule: Q04DX003 (ip), vehicle: saline.
Setting [2] is: dose: 100.0 mg/kg/injection, schedule: Q04DX003 (ip), vehicle: saline.
Where [3] appears, read: dose: 200.0 mg/kg/injection, schedule: Q04DX003 (ip), vehicle: saline.
[4] abbreviates: dose: 100.0 mg/kg/injection, schedule: Q04DX003 (ip), vehicle: saline with Tween-80.
Setting [5] is: dose: 400.0 mg/kg/injection, schedule: Q04DX003 (ip), vehicle: saline with Tween-80.
Where [6] appears, read: dose: 800.0 mg/kg/injection, schedule: Q04DX003 (ip), vehicle: saline with Tween-80.
Where [7] appears, read: dose: 50.0 mg/kg/injection, schedule: Q04DX003 (ip), vehicle: saline with Tween-80.
Where [8] appears, read: dose: 200.0 mg/kg/injection, schedule: Q04DX003 (ip), vehicle: suspension in saline.
Where [9] appears, read: dose: 400.0 mg/kg/injection, schedule: Q04DX003 (ip), vehicle: suspension in saline.
[10] abbreviates: dose: 50.0 mg/kg/injection, schedule: Q04DX003 (ip), vehicle: Klucel (hydroxypropylcellulose) (HPC).
Setting [11] is: dose: 100.0 mg/kg/injection, schedule: Q04DX003 (ip), vehicle: Klucel (hydroxypropylcellulose) (HPC).
Where [12] appears, read: dose: 200.0 mg/kg/injection, schedule: Q04DX003 (ip), vehicle: Klucel (hydroxypropylcellulose) (HPC).
[13] abbreviates: dose: 25.0 mg/kg/injection, schedule: Q04DX003 (ip), vehicle: Klucel (hydroxypropylcellulose) (HPC).
Setting [14] is: dose: 25.0 mg/kg/injection, schedule: Q04DX003 (ip), vehicle: saline.

In the case of `Nc1cc2[nH]cnc2c(=O)[nH]1`, the T/C is, setting by setting: under setting [1], 58 % of control; under setting [2], 87 % of control; under setting [3], 59 % of control.
On to `NC(=S)N/N=C/c1ccc(O)cn1`, for which the T/C is 81 % of control under setting [4]; 46 % of control (dose: 200.0 mg/kg/injection, schedule: Q04DX003 (ip), vehicle: saline with Tween-80); 39 % of control under setting [5]; 73 % of control under setting [6].
In the case of `Nc1ccc(Cl)cc1N`, the T/C is 109 % of control under setting [5]; 110 % of control under setting [6]; 117 % of control (dose: 1600.0 mg/kg/injection, schedule: Q04DX003 (ip), vehicle: saline with Tween-80); 80 % of control (dose: 3200.0 mg/kg/injection, schedule: Q04DX003 (ip), vehicle: saline with Tween-80).
As for `CCN(CC)CCCC(C)Nc1c2ccc(Cl)cc2nc2ccc(OC)cc12` (stereo not given), the T/C is, setting by setting: under setting [7], 95 % of control; under setting [4], 88 % of control.
As to `COC1C(O)CC(OC2CC(OC3CC(O[C@@H]4C(=O)c5c(cc6cc(OC7CC(OC8CC(O)C(O)C(C)O8)C(O)C(C)O7)c(C)c(O)c6c5O)C[C@H]4[C@H](OC)C(=O)[C@@H](O)[C@@H](C)O)OC(C)C3O)OC(C)C2O)OC1C` (stereo not given in full), the T/C (dose: 0.75 mg/kg/injection, schedule: Q04DX003 (ip), vehicle: saline) is 90 % of control and 95 % of control.
As to `CSc1cc(=O)n2c3ccccc3c3ccnc1c32`, the T/C by setting is: (dose: 10.0 mg/kg/injection, schedule: Q04DX003 (ip), vehicle: saline with Tween-80) 61 % of control; (dose: 20.0 mg/kg/injection, schedule: Q04DX003 (ip), vehicle: saline with Tween-80) 50 % of control and 67 % of control; (dose: 80.0 mg/kg/injection, schedule: Q04DX003 (ip), vehicle: saline with Tween-80) 27 % of control.
Regarding `CN(N=O)C(=O)N[C@@H](C=O)[C@@H](O)[C@H](O)[C@H](O)CO`, the T/C under setting [2] is 58 % of control and the T/C under setting [3] is 80 % of control.
With `O=CC(S)CO` (stereo not given), the T/C under setting [3] is 61 % of control.
Regarding `N=c1ccn2c(n1)OC1C(O)C(CO)OC12` (stereo not given), the T/C reads like this: under setting [8], 65 % of control; under setting [9], 65 % of control; (dose: 800.0 mg/kg/injection, schedule: Q04DX003 (ip), vehicle: suspension in saline) 47 % of control.
With `CC[C@](O)(C(=O)O)c1cc2n(c(=O)c1CO)Cc1cc3ccccc3nc1-2`, the T/C (dose: 4.5 mg/kg/injection, schedule: Q04DX003 (ip), vehicle: saline) was 122 % of control; the T/C (dose: 9.0 mg/kg/injection, schedule: Q04DX003 (ip), vehicle: saline) is 97 % of control; the T/C (dose: 16.0 mg/kg/injection, schedule: Q04DX003 (ip), vehicle: saline) was 44 % of control; the T/C (dose: 18.0 mg/kg/injection, schedule: Q04DX003 (ip), vehicle: saline) was 59 % of control; the T/C (dose: 36.0 mg/kg/injection, schedule: Q04DX003 (ip), vehicle: saline) was 70 % of control.
Consider `CC(=O)OCC1OC(n2cc(CBr)nn2)C(OC(C)=O)C(OC(C)=O)C1OC(C)=O` (stereo not given), for which the T/C runs as follows: (dose: 25.0 mg/kg/injection, schedule: Q04DX003 (ip), vehicle: saline with Tween-80) 119 % of control; under setting [7], 150 % of control; under setting [4], 57 % of control.
With `Cc1cc(N(CCOS(C)(=O)=O)CCOS(C)(=O)=O)ccc1C=Nc1ccc(-c2nc(Cc3ccccc3)sc2C)cc1`, the T/C runs as follows: under setting [10], 46 % of control; under setting [11], -84 % of control; under setting [12], -73 % of control.
Turning to `CO[C@H]1C[C@](C)(O)Cc2cc3c(c(O)c21)C(=O)c1c(O)cc2c(c1C3=O)O[C@@H]1O[C@@]2(C)[C@H](O)[C@@H](N(C)C)[C@@H]1O`, the T/C is, setting by setting: (dose: 6.25 mg/kg/injection, schedule: Q04DX003 (ip), vehicle: other) 169 % of control; (dose: 12.5 mg/kg/injection, schedule: Q04DX003 (ip), vehicle: other) 165 % of control.
Consider `CN(C)N=Nc1ccccc1`, for which, under setting [10], the T/C was 221 % of control.
As to `CN(C)N=Nc1cn[nH]c1C(N)=O`, the T/C is 100 % of control under setting [10]; 98 % of control under setting [11]; 71 % of control under setting [12]; 82 % of control (dose: 400.0 mg/kg/injection, schedule: Q04DX003 (ip), vehicle: Klucel (hydroxypropylcellulose) (HPC)).
As to `CN1N=C(N)c2cn(C3OC(COP(=O)(O)O)C(O)C3O)c3ncnc1c23` (stereo not given), the T/C (dose: 25.0 mg/kg/injection, schedule: Q04DX003 (ip), vehicle: water) was 102 % of control.
With `O=Cc1ccc(O)c(O)c1`, the T/C is 63 % of control under setting [7] and 89 % of control under setting [5].
As for `CC(C)=CCNc1ncnc2c1ncn2C1OC(CO)C(O)C1O` (stereo not given), the T/C under setting [8] was 39 % of control and the T/C under setting [9] is 77 % of control.
As for `CN(CO)c1nc(N(C)CO)nc(N(C)CO)n1`, the T/C by setting is: (dose: 25.0 mg/kg/injection, schedule: Q01DX005 (ip), vehicle: saline) 3 % of control and 16 % of control; (dose: 25.0 mg/kg/injection, schedule: Q04DX005 (ip), vehicle: saline) 45 % of control and 58 % of control; (dose: 50.0 mg/kg/injection, schedule: Q01DX005 (ip), vehicle: saline) -7 % of control and 4 % of control; (dose: 100.0 mg/kg/injection, schedule: Q01DX005 (ip), vehicle: saline) -97 % of control and -91 % of control; (dose: 100.0 mg/kg/injection, schedule: Q07DX005 (ip), vehicle: saline) 24 % of control and 28 % of control; (dose: 200.0 mg/kg/injection, schedule: Q01DX005 (ip), vehicle: saline) -94 % of control. Besides, the T/C reads like this: (dose: 200.0 mg/kg/injection, schedule: Q04DX005 (ip), vehicle: saline) -87 % of control and -82 % of control; (dose: 200.0 mg/kg/injection, schedule: Q07DX005 (ip), vehicle: saline) -96 % of control.
Take `Cc1c(N)nc(C(CC(N)=O)NCC(N)C(N)=O)nc1C(=O)NC(C(=O)NC(C)C(O)CC(=O)NC(C(=O)NC(OC1OC(C)C(N)C(O)C1O)C(O)c1nc(-c2nc(C(=O)NCCCC(N)CC(=O)NCCCNCCCCN)cs2)cs1)C(C)O)C(OC1OC(CO)C(O)C(O)C1OC1OC(CO)C(O)C(OC(N)=O)C1O)c1cnc[nH]1` (stereo not given): the T/C reads like this: (dose: 4.0 mg/kg/injection, schedule: Q04DX003 (ip), vehicle: saline) 28 % of control; (dose: 8.0 mg/kg/injection, schedule: Q04DX003 (ip), vehicle: saline) 11 % of control.
Regarding `CC(C)CCCCCCCCCCCCC(=O)NCC(=O)NC1C(O)C(O)C(Nc2ncnc3nc[nH]c23)OC1C(O)CO` (stereo not given), the T/C is, setting by setting: (dose: 3.0 mg/kg/injection, schedule: Q04DX003 (ip), vehicle: suspension in saline) 91 % of control; (dose: 6.0 mg/kg/injection, schedule: Q04DX003 (ip), vehicle: suspension in saline) 109 % of control; (dose: 12.0 mg/kg/injection, schedule: Q04DX003 (ip), vehicle: suspension in saline) 30 % of control.
Consider `OCC1OC(n2cnc3c2NC=NC[C@H]3O)CC1O` (stereo not given in full), for which the T/C is 77 % of control (dose: 4.0 mg/kg/injection, schedule: Q04DX003 (ip), vehicle: water); 78 % of control (dose: 8.0 mg/kg/injection, schedule: Q04DX003 (ip), vehicle: water); 49 % of control (dose: 16.0 mg/kg/injection, schedule: Q04DX003 (ip), vehicle: water).
As to `CCOC(=O)C1C2OC(=O)C(C(=O)C2CN(CCCl)CCCl)C1C1CC=C(CC2=CCC(C3C4C(=O)OC(C(CN(CCCl)CCCl)C4=O)C3C(=O)OCC)CC2)CC1` (stereo not given), the T/C under setting [13] was 58 % of control and the T/C under setting [11] is 35 % of control.
In the case of `CC(=O)OCC(=O)[C@@]12OC(C)(C)O[C@@H]1C[C@H]1[C@@H]3CC(C=O)=C4C=C(OCCCl)CC[C@]4(C)[C@@]3(F)[C@@H](O)C[C@@]12C`, under setting [10], the T/C is 54 % of control.
For the molecule `C1OC1CN1CCN(CC2CO2)CC1` (stereo not given), the T/C by setting is: (dose: 12.5 mg/kg/injection, schedule: Q04DX003 (ip), vehicle: saline) 91 % of control; under setting [14], 79 % of control.
As for `N[C@H](C(=O)O)[C@@H]1CC(Cl)=NO1`, the T/C was 19 % of control under setting [14], 12 % of control under setting [1], 5 % of control under setting [2] and 1 % of control under setting [3].
With `O=C/C(Cl)=C(/Cl)C(=O)O`, the T/C (dose: 12.5 mg/kg/injection, schedule: Q04DX003 (ip), vehicle: saline with Tween-80) is 96 % of control.
As to `Oc1ccc(O)cc1`, the T/C under setting [2] was 110 % of control.
For `O=S(CCCl)CCCl`, the T/C runs as follows: under setting [13], 75 % of control; under setting [11], 34 % of control.
